Data: patent US20250134994A1, “IMMUNOGENIC MRNA DELIVERY VEHICLES” (Corner Therapeutics, Inc., priority 2022, published 2025)

Key:
Type in all cases: cell-based
human PBMCs [1] = test: IFNγ secretion by human PBMCs (ELISA); details: two days post-hyperactivation
Experimental: (§1) Isolation of PBMCs from Human and Canine Whole Blood. PBMCs were isolated from whole blood using density gradient centrifugation with Ficoll-Paque PLUS (Cytivia). Whole blood was diluted 1:1 with PBS, layered on top of Ficoll-Paque PLUS and centrifuged at 1000×g for 30 minutes at room temperature. PBMCs were collected, washed twice in PBS, and incubated with Ack lysis buffer (Lonza) to remove any remaining red blood cells.
(§2) Cell Culture and Stimulation. Immediately following isolation, PBMCs were plated in RPMI medium containing 10% FBS, 50 units/mL penicillin, […] streptomycin, 2 mM L-glutamine, 1 mM sodium pyruvate, and […] beta-mercaptoethanol (R10 media). […]
(§3) Endpoint Analyses. […] Half of the media volume in the wells was collected for cytokine quantification by Enzyme-Linked Immunosorbent Assay (ELISA) or Lumit™ Bioluminescent assay, while the remaining media and cells were used to quantify cell viability by assessing metabolic activity.
(§4) Quantification of Cytokine Secretion. IL-1β secretion from human PBMCs was assessed using one of the following kits: ELISA MAX Deluxe Set Human IL-1β kit (Biolegend), Invitrogen Human IL-1β kit, or the Lumit™ Human IL-1β Immunoassay (Promega). IFNγ secretion from human PBMCs was assessed using the ELISA MAX Deluxe Set Human IFNγ (Biolegend) and TNFα secretion from human PBMCs was assessed using the Human TNFα Uncoated ELISA kit (Invitrogen). […]

canine PBMCs = test: IL-1β secretion by canine PBMCs (ELISA); details: two days in culture, R848 1 μg/mL, 22:0 LYSO PC 82.5 μM, concentration per mL and fold change per donor relative to R848 alone
Experimental: as §1, §2, §3, §4

human PBMCs [2] = test: IL-1β secretion by human PBMCs (ELISA or Lumit); details: two days in culture, R848 1 μg/mL
Experimental: as §1, §2, §3, §4

Molecule	fold change per donor in IFNγ secretion relative to R848 alone (human PBMCs [1])	IL-1β secretion (canine PBMCs)	IL-1β secretion (human PBMCs [2])
Nc1nc2c(ncn2[C@@H]2O[C@@H]3COP(=O)(O)O[C@H]4[C@@H](O)[C@H](n5cnc6c(N)ncnc65)O[C@@H]4COP(=O)(O)O[C@@H]2[C@@H]3O)c(=O)[nH]1 [2′3′cGAMP, 2′3′ cGAMP, reference compound]	neither GM-CSF nor 2′3′cGAMP elicited a substantial fold change	neither GM-CSF nor 2′3′cGAMP induced significant IL-1β secretion	–
GM-CSF: human GM-CSF (Peprotech), innate agonist added at 10 ng/mL	neither GM-CSF nor 2′3′cGAMP elicited a substantial fold change	neither GM-CSF nor 2′3′cGAMP induced significant IL-1β secretion	did not induce levels of IL-1β secretion from human PBMCs significantly above background levels
